Several values for one entry are separate records, joined by “and”; a condition that tells them apart may be missing. Equal values may be shown once.
Key:
[1] = test system: male rats of Wistar strain; assay: Animal trial: serum total cholesterol, HDL and LDL in rats on cholesterol diet; format: in vivo, rat; details: for total cholesterol reduction (lowering) in comparison to the starting condition: 2 weeks; for HDL, Average / LDL, Average / Total cholesterol, Average: group average; for HDL / LDL / Total cholesterol: individual rat
Procedure: (§1) During the adaptation period, health was monitored by weighing and observing the animals. […] After 10 days of cholesterol-containing feed, all animals were in a state of hypercholesterolemia. One group served as the control, whereas group II, III, and IV received 0.5%, 1%, and 2% of KHCA (produced via the method of Example 2), respectively, in addition to the cholesterol diet. The salt solutions were given orally in 2 ml water daily. Group I received 2 ml of distilled water per 200 g body weight; group II received 1.03 mg KHCA in 2 ml water per 200 body weight; group III 2.06 mg; and group IV 4.12 mg. These treatments were continued for 2 weeks.
The animals were fasted for 12 hours prior to blood withdrawal. Rats were weighed and the 3-4 ml blood was obtained by amputating 2-3 cm of the tail. The blood was collected, let stand at room temperature for 30 minutes, and then centrifuged for 10-15 minutes. The serum was separated and refrigerated at 4° C. until ready for cholesterol analysis. Cholesterol level of the serum was analyzed using diagnostic kit (Boehringer Mannheim). Total cholesterol, LDL, and HDL were determined through spectrophotometric instrument (Hitachi). These are protocols frequently used in clinical laboratories.
Student's T-test was used to evaluate whether there was a difference between the control and each of the treated groups by comparing the data before and after the treatment. One-way variance analysis was performed to see if there was a statistically significant difference among the groups.

[2] = Animal trial: body weight, feed and water consumption, feces; format: in vivo, rat; details: for Body weight: group average
Procedure: as §1

[3] = test system: rats; details: physiologic doses; cited from earlier work
[4] = animal model, U.S. Pat. No. 6,221,901; cited from earlier work
[5] = 0.5% KHCA (1.03 mg/day oral, 2 weeks), End Day 24
[6] = 0.5% KHCA group, Hypercholesterolemia Day 10 (before treatment)
[7] = 0.5% KHCA group, Start (before diet and treatment)
[8] = 1.0% KHCA (2.06 mg/day oral, 2 weeks), End Day 24
[9] = 1.0% KHCA group, Hypercholesterolemia Day 10 (before treatment)
[10] = 1.0% KHCA group, Start (before diet and treatment)
[11] = 2.0% KHCA (4.12 mg/day oral, 2 weeks), End Day 24
[12] = 2.0% KHCA group, Hypercholesterolemia Day 10 (before treatment)
[13] = 2.0% KHCA group, Start (before diet and treatment)
[14] = 2 ml of 2 percent daily for two weeks
[15] = 2 ml of 2 percent daily, value before the two weeks treatment
[16] = KHCA 0.5% group, Hyper-cholesterolemia (Day 10), before treatment
[17] = KHCA 0.5% group, Start (before diet and treatment)
[18] = KHCA 0.5%, 2 weeks oral, End (Day 24)
[19] = KHCA 1.0% group, Hyper-cholesterolemia (Day 10), before treatment
[20] = KHCA 1.0% group, Start (before diet and treatment)
[21] = KHCA 1.0%, 2 weeks oral, End (Day 24)
[22] = KHCA 2.0% group, Hyper-cholesterolemia (Day 10), before treatment
[23] = KHCA 2.0% group, Start (before diet and treatment)
[24] = KHCA 2.0%, 2 weeks oral, End (Day 24)
[25] = KHCA administration versus control group

## O=C([O-])CC(O)(C(=O)[O-])C(O)C(=O)[O-].[K+].[K+].[K+] (centres unmarked) [KHCA, Potassium HCA Salt]
[1]; 0.5% K-HCA
  total cholesterol reduction (lowering) in comparison to the starting condition: 1.6 mg·dL
[1]; [5]
  HDL, Average: 49.2 mg/dL
  LDL, Average: 64.6 mg/dL
  Total cholesterol, Average: 79.2 mg/dL
  HDL: 40 mg/dL and 59 mg/dL and 43 mg/dL and 53 mg/dL and 51 mg/dL
  LDL: 59 mg/dL and 77 mg/dL and 71 mg/dL and 60 mg/dL and 56 mg/dL
  Total cholesterol: 82 mg/dL and 80 mg/dL and 76 mg/dL and 79 mg/dL (2×)
[1]; [6]
  HDL, Average: 31 mg/dL
  LDL, Average: 63.2 mg/dL
  Total cholesterol, Average: 81 mg/dL
  HDL: 27 mg/dL and 28 mg/dL and 39 mg/dL and 31 mg/dL and 30 mg/dL
  LDL: 60 mg/dL (2×) and 70 mg/dL and 67 mg/dL and 59 mg/dL
  Total cholesterol: 83 mg/dL and 84 mg/dL and 76 mg/dL and 80 mg/dL and 82 mg/dL
[1]; [7]
  HDL, Average: 39 mg/dL
  LDL, Average: 28.8 mg/dL
  Total cholesterol, Average: 72.6 mg/dL
  HDL: 37 mg/dL and 40 mg/dL and 41 mg/dL and 39 mg/dL and 38 mg/dL
  LDL: 31 mg/dL and 28 mg/dL and 33 mg/dL and 27 mg/dL and 25 mg/dL
  Total cholesterol: 74 mg/dL and 73 mg/dL and 69 mg/dL and 72 mg/dL and 75 mg/dL
[1]; [8]
  HDL, Average: 53 mg/dL
  LDL, Average: 58.2 mg/dL
  Total cholesterol, Average: 71 mg/dL
  HDL: 58 mg/dL and 60 mg/dL and 49 mg/dL and 46 mg/dL and 52 mg/dL
  LDL: 69 mg/dL and 51 mg/dL and 48 mg/dL and 60 mg/dL and 63 mg/dL
  Total cholesterol: 73 mg/dL and 71 mg/dL and 75 mg/dL and 69 mg/dL and 67 mg/dL
[1]; [9]
  HDL, Average: 31.8 mg/dL
  LDL, Average: 60.4 mg/dL
  Total cholesterol, Average: 79.6 mg/dL
  HDL: 28 mg/dL and 37 mg/dL (2×) and 30 mg/dL and 27 mg/dL
  LDL: 67 mg/dL and 59 mg/dL and 54 mg/dL and 60 mg/dL and 62 mg/dL
  Total cholesterol: 75 mg/dL and 82 mg/dL and 84 mg/dL and 80 mg/dL and 77 mg/dL
[1]; [10]
  HDL, Average: 39 mg/dL
  LDL, Average: 29 mg/dL
  Total cholesterol, Average: 72.6 mg/dL
  HDL: 36 mg/dL and 40 mg/dL and 43 mg/dL and 39 mg/dL and 37 mg/dL
  LDL: 28 mg/dL and 29 mg/dL and 33 mg/dL and 30 mg/dL and 25 mg/dL
  Total cholesterol: 69 mg/dL and 74 mg/dL and 72 mg/dL and 75 mg/dL and 73 mg/dL
[1]; 1.0% KHCA
  total cholesterol reduction (lowering) in comparison to the starting condition: 2.06 mg·dL
[1]; 2.0% (4.12 mg) KHCA daily, control group decreased
  change of HDL concentration in blood serum: increased
[1]; 2.0% KHCA (4.12 mg daily)
  total cholesterol reduction (lowering) in comparison to the starting condition: 12.2 mg·dL
[1]; [11]
  HDL, Average: 63.4 mg/dL
  LDL, Average: 50 mg/dL
  Total cholesterol, Average: 61.2 mg/dL
  HDL: 64 mg/dL and 61 mg/dL and 67 mg/dL and 59 mg/dL and 66 mg/dL
  LDL: 61 mg/dL and 46 mg/dL and 50 mg/dL and 44 mg/dL and 49 mg/dL
  Total cholesterol: 59 mg/dL and 66 mg/dL and 52 mg/dL and 58 mg/dL and 71 mg/dL
[1]; [12]
  HDL, Average: 34.6 mg/dL
  LDL, Average: 63.2 mg/dL
  Total cholesterol, Average: 82 mg/dL
  HDL: 31 mg/dL and 37 mg/dL and 40 mg/dL and 33 mg/dL and 32 mg/dL
  LDL: 69 mg/dL and 61 mg/dL and 59 mg/dL and 60 mg/dL and 67 mg/dL
  Total cholesterol: 83 mg/dL and 85 mg/dL and 81 mg/dL and 79 mg/dL and 82 mg/dL
[1]; [13]
  HDL, Average: 38.8 mg/dL
  LDL, Average: 29.8 mg/dL
  Total cholesterol, Average: 73.4 mg/dL
  HDL: 38 mg/dL and 40 mg/dL and 41 mg/dL and 36 mg/dL and 39 mg/dL
  LDL: 31 mg/dL and 29 mg/dL and 26 mg/dL and 33 mg/dL and 30 mg/dL
  Total cholesterol: 75 mg/dL and 70 mg/dL and 72 mg/dL and 73 mg/dL and 77 mg/dL
[1]; [14]
  HDL level, after treatment: 63 mg/dL
  serum cholesterol LDL level, after treatment: 50 mg·dL
[1]; [15]
  HDL level, before treatment: 35 mg/dL
  serum cholesterol LDL level, before treatment: 63 mg/dL
[1]; [16]
  LDL/HDL Ratio: 2.04
  Total Cholesterol/HDL: 2.61
[1]; [17]
  LDL/HDL Ratio: 0.74
  Total Cholesterol/HDL: 1.86
[1]; [18]
  LDL/HDL Ratio: 1.31
  Total Cholesterol/HDL: 1.61
[1]; [19]
  LDL/HDL Ratio: 1.9
  Total Cholesterol/HDL: 2.50
[1]; [20]
  LDL/HDL Ratio: 0.74
  Total Cholesterol/HDL: 1.86
[1]; [21]
  LDL/HDL Ratio: 1.1
  Total Cholesterol/HDL: 1.34
[1]; [22]
  LDL/HDL Ratio: 1.83
  Total Cholesterol/HDL: 2.36
[1]; [23]
  LDL/HDL Ratio: 0.77
  Total Cholesterol/HDL: 1.89
[1]; [24]
  LDL/HDL Ratio: 0.79
  Total Cholesterol/HDL: 0.97
[2]; 0.5% KHCA (1.03 mg/day oral), At Hypercholesterolemia, before treatment
  Body weight: 202.4 grams
[2]; 0.5% KHCA (1.03 mg/day oral), End of Experiment, after 2 weeks treatment
  Body weight: 199.5 grams
[2]; 0.5% KHCA (1.03 mg/day oral), Start of Experiment, before cholesterol diet and treatment
  Body weight: 162.8 grams
[2]; 1.0% KHCA (2.06 mg/day oral), At Hypercholesterolemia, before treatment
  Body weight: 195.0 grams
[2]; 1.0% KHCA (2.06 mg/day oral), End of Experiment, after 2 weeks treatment
  Body weight: 193.2 grams
[2]; 1.0% KHCA (2.06 mg/day oral), Start of Experiment, before cholesterol diet and treatment
  Body weight: 157.7 grams
[2]; 2.0% KHCA (4.12 mg/day oral), At Hypercholesterolemia, before treatment
  Body weight: 192.7 grams
[2]; 2.0% KHCA (4.12 mg/day oral), End of Experiment, after 2 weeks treatment
  Body weight: 183.7 grams
[2]; 2.0% KHCA (4.12 mg/day oral), Start of Experiment, before cholesterol diet and treatment
  Body weight: 166.9 grams
[2]; [14]
  effect on body weight: reduced body weight
[2]; [25]
  feces consistency: softer
  feed consumption: lower feed consumption
[3]
  benefits with regard to insulin metabolism and blood pressure regulation: significant results

## O=C([O-])CC(O)(C(=O)[O-])C(O)C(=O)[O-].[K+].[Mg+2] (centres unmarked) [potassium-magnesium HCA, Potassium-Magnesium Hydroxycitrate Salt]
[3]
  benefits with regard to insulin metabolism and blood pressure regulation: significant results

## Magnesium HCA
[4]
  increase in HDL: 8.5%

Reference: patent US20080293815A1, “HCA FOR IMPROVED HDL SERUM LIPIDS PROFILE” (Glykon Technologies Group, LLC, priority 2006, published 2008)
